In PMC5441849, “Carvacrol derivatives as mushroom tyrosinase inhibitors; synthesis, kinetics mechanism and molecular docking studies” (PLoS ONE, 2017):
Entries after “also recorded” stand apart in the source; their conditions may differ. Read-outs that look alike come from different tables or passages of the source.

Experiments:
mushroom tyrosinase [1] = target: T1, mushroom tyrosinase (Agaricus bisporus, UniProt C7FF04); assay: Reversibility of inhibition (remaining enzyme activity versus enzyme concentration); format: biochemical, Agaricusbisporus; conditions: enzyme 2 to 10 μg/mL, L-DOPA, 37°C
T1 construct: purchased Sigma
T1 sequence (C7FF04 2-392): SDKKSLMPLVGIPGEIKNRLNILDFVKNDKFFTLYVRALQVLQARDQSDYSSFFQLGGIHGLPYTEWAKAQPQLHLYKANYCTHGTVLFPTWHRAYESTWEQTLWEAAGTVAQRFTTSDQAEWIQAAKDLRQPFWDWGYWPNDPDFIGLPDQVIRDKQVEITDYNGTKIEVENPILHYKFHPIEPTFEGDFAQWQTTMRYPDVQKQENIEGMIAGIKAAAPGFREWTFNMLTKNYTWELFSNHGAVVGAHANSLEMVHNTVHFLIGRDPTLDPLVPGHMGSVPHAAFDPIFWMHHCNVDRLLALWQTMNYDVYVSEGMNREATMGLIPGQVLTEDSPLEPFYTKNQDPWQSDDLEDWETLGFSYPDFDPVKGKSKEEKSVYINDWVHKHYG
Procedure: Assay conditions were same as described in assay protocolexceptthat the final concentration of enzyme was varied (2 to 10 μg/mL).

mushroom tyrosinase [2] = target: T1, mushroom tyrosinase; assay: Kinetic analysis of tyrosinase inhibition (Lineweaver-Burk and Dixon plots, diphenolase activity); format: biochemical, Agaricusbisporus; conditions: for Type of inhibition: Lineweaver-Burk plots, oxidation of L-DOPA
Procedure: Pre-incubation and measurement time was the same as discussed in mushroom tyrosinase inhibition assay protocol. Formation of DOPAchrome was continuously monitored at 475nm for 5min at a 30s interval in the microplate reader after addition of enzyme.

[3] = Dixon plot, L-DOPA substrate, read-out: Inhibition constant Ki

| SMILES | Reversibility of enzyme inhibition (mushroom tyrosinase [1]) | Ki (mushroom tyrosinase [2]; [3]) | Type of inhibition (mushroom tyrosinase [2]) | Ki (mushroom tyrosinase [2]) |
| --- | --- | --- | --- | --- |
| Cc1ccc(C(C)C)cc1OC(=O)COC(=O)c1ccc(O)cc1O [4c, 2-[2-methyl-5-(propan-2-yl)phenoxy]-2-oxoethyl 2,4-dihydroxybenzoate] | reversible inhibitor; also recorded: reversibly | 19 µM | mixed-type inhibition | – |
| Cc1ccc(C(C)C)cc1OC(=O)COC(=O)/C=C/c1ccc(O)cc1 [6b, 2-[2-methyl-5-(propan-2-yl)phenoxy]-2-oxoethyl (2E)-3-(4-hydroxyphenyl)prop-2-enoate] | irreversible | 10 µM | mixed-type inhibition | – |
| Cc1ccc(C(C)C)cc1OC(=O)COC(=O)/C=C/c1ccc(O)cc1O [6c, 2-[2-methyl-5-(propan-2-yl)phenoxy]-2-oxoethyl (2E)-3-(2,4-dihydroxyphenyl)prop-2-enoate] | irreversible; also recorded: irreversibly | – | non-competitive inhibitor | 0.05 µM |
